Measured values from patent publication US20080286388A1, “Pharmaceutical Composition and Non Dependence Coffee Comprising Edible Carboxylic Acid and/or Its Acid Salts and Coffeine” (priority 2004, published 2008).
≈ marks a conversion by molar mass, not a printed value. Where two headings read alike, the source gives them in different places.

Tests used:
[1] = test system: mouse's leaching cell solution (abdominal cavity cells), histamine release by 48/80 compound; test: Drug inhibiting effect on histamine leaching from mouse abdominal cavity cells treated with 48/80 compound; assay type: cell-based; conditions: for inhibition at 100 µg/mL / IC50 / inhibition at 2 µg/mL / inhibition at 5 µg/mL / inhibition at 10 µg/mL / inhibition at 50 µg/mL / inhibition at 300 µg/mL / inhibition at 1000 µg/mL: Mus musculus; for IC50: read-out: IC50 value (concentration for inhibiting rate of 50%)
Protocol: This is a comparative testing for drug depressing effect on the amount of leaching histamines when is treated with 48/80 (Sigma, St. MO, USA) compound.
(1). Preparation of Leaching Cell Solution from Mouse Body.
A mouse is killed and bloodletting. Then 10 ml of Locke's solution containing 0.1% bovine serum protein is injected into its abdominal cavity. After abdominal cavity being light massaged, the cavity is cut and the Locke's solution is removed. Cavity is washed with another 5 ml of Locke's solution, and this washed solution is added to the latter one. This combined solution is centrifuged at 600 rpm for 5 minutes. The sediments are washed with 5 ml of cool Locke's solution. Adding 3 ml of cold Locke's solution to the washed sediments, then a leached cell solution of abdominal cavity is obtained. (The composition of Locke's solution is: NaCL […], KCL 0.2%, CaCL2 0.15%, glucose 1.0%, in w/v, and the rest distillated water.)
(2). Drug Inhibiting Effect on the Amount of Leaching Histamines when Treated with 48/80 Compound.
1.0 ml of each of those solutions in last term is mixed with 0.3 ml of mouse's leaching cell solution and 0.5 ml of Locke's solution. This mixture is cultivated at 37° C. for 5 minutes. Then adding 0.2 ml of Locke's solution of 48/80 compound (1 mg/100 ml) and cultivated at 37° C. for 10 minutes. Then the reaction is stopped by cooling, and centrifuged at 2,500 rpm for 10 minutes. 1.7 ml of decanted solution and 0.3 ml of sediments are obtained.
0.1 ml of water and 0.2 ml of 100% trichloroacetic acid are added to the decanted solution. 1.5 ml of Locke's solution and 0.2 ml of 100% trichloroacetic acid are added to the sediments washed solution. They are cultivated at room temperature for 30 minutes. After cultivation, the mixtures are centrifuged at 3,000 rpm for 15 minutes, respectively. 0.35 ml of each of the former two solutions is sampled. In each sample, 1.65 ml of water, 0.4 ml of 1N NaOH and 0.1 ml of 0.5% OPT (o-phthalic aldehyde) in methanol are added and cultivated at room temperature for 4 minutes. The reaction is stopped by adding 0.2 ml of 2M citric acid. And finally, determine the amount of released histamines in the tested solution by fluorescence method. By the analysis, results of the inhibiting rate of histamines could be calculated.
Locke's solution is instead of each drug in control group, and instead of both drug and 48/80 compound solution in blank group.
The histamine releasing rate (A) can be calculated by following equation. […] Where (Hs) is the total amount of histamine in the decanted solution, and (Hr) is the total amount of histamine in the sediment. (A)=[(Hs)/{(Hs)+(Hr)}]×100%. Then the inhibiting rate is:
=100−[(A−A in blank group)/(A−A in control group)]×100%.

[2] = test system: person; test: Tests for increase the ability of learning and memory; assay type: in vivo, human; conditions: Homo sapiens, po; three pieces of 600 mg, average of four tests before and after ingesting; read-out: Increase rate (%) of memory ability
Protocol: A person administrates see a random series of 100 numbers, typed by PC, for 10 minutes and memory it. Then recite and write down the memorized number series. To check the recited series with the original one to see how many numbers are correct. In each testing at least has 10 minutes interval, and repeat four times. […] Each kind of drugs testing is done in half day, morning or afternoon only. The testing results were counted by one correct number for one point. Make the average value of four times testing of before and after drug ingesting, respectively. The increase of learning or memory ability is calculated by following equation and listed in Table 14: Rate of increase of memory ability=[(average value of four time testing before ingesting drug)−(average value of four times testing after ingesting drug)]×100%/(average value of four time testing before ingesting drug)

[3] = testing drug 100 μg/ml, adding 5% of coffee extract, read-out: inhibiting rate (%) (adding 5% of coffee extract)
[4] = testing drug 100 μg/ml, non adding coffee extract, read-out: Inhibiting rate (%) (non adding coffee extract)
[5] = testing drug 100 μg/ml, adding 5% of coffee extract
[6] = testing drug 100 μg/ml, non adding coffee extract
[7] = adding 5% of coffee extract, calculated by figure
[8] = dose 2 μg/ml, adding 5% of coffee extract
[9] = dose 5 μg/ml, adding 5% of coffee extract
[10] = dose 10 μg/ml, adding 5% of coffee extract
[11] = dose 50 μg/ml, adding 5% of coffee extract
[12] = dose 100 μg/ml, adding 5% of coffee extract
[13] = dose 300 μg/ml, adding 5% of coffee extract
[14] = dose 1000 μg/ml, adding 5% of coffee extract

O=C(O)CC(=O)C(=O)O [oxalacetic acid]
inhibition at 100 µg/mL [1, 3]: 100% | inhibition at 100 µg/mL [1, 4]: 100% | change in vivo at 1800 mg [2]: 310%

CCCCCCC(O)C(=O)O (stereo not drawn) [α-hydroxy octanoic acid]
inhibition at 100 µg/mL [1, 3]: 100% | inhibition at 100 µg/mL [1, 4]: 100% | change in vivo at 1800 mg [2]: 300%

O=C([O-])C(O)C(O)C(=O)O.[K+] (centres unmarked) [potassium hydrogen tartrate]
inhibiting rate (%) (adding 5% of coffee extract) [1, 5]: 100% | Inhibiting rate (%) (non adding coffee extract) [1, 6]: 100%

Diphenhydramine citrate [reference compound]
inhibiting rate (%) (adding 5% of coffee extract) [1, 5]: 55.5% | Inhibiting rate (%) (non adding coffee extract) [1, 6]: 37.5%

CC(=O)O [acetic acid]
inhibition at 100 µg/mL [1, 3]: 100% | inhibition at 100 µg/mL [1, 4]: 100% | change in vivo at 1800 mg [2]: 307%

O=C([O-])/C=C\C(=O)O.[K+] [potassium hydrogen maleate]
inhibiting rate (%) (adding 5% of coffee extract) [1, 5]: 100% | Inhibiting rate (%) (non adding coffee extract) [1, 6]: 100%

O=C([O-])CC(O)(CC(=O)O)C(=O)[O-].[K+].[K+] [dipotassium hydrogen citrate]
inhibiting rate (%) (adding 5% of coffee extract) [1, 5]: 48.7% | Inhibiting rate (%) (non adding coffee extract) [1, 6]: 40.0%

O=C([O-])CCC(=O)O.[Na+] [sodium hydrogen succinate]
inhibiting rate (%) (adding 5% of coffee extract) [1, 5]: 100% | Inhibiting rate (%) (non adding coffee extract) [1, 6]: 100%

O=C([O-])/C=C\C(=O)O.[Na+] [sodium hydrogen maleate]
inhibiting rate (%) (adding 5% of coffee extract) [1, 5]: 100% | Inhibiting rate (%) (non adding coffee extract) [1, 6]: 100%

O=C([O-])CC(O)(CC(=O)O)C(=O)O.[K+] [potassium dihydrogen citrate]
inhibiting rate (%) (adding 5% of coffee extract) [1, 5]: 100% | Inhibiting rate (%) (non adding coffee extract) [1, 6]: 100%

O=C([O-])CCC(=O)O.[K+] [potassium hydrogen succinate]
inhibiting rate (%) (adding 5% of coffee extract) [1, 5]: 100% | Inhibiting rate (%) (non adding coffee extract) [1, 6]: 100%

O=C([O-])/C=C/C(=O)O.[Na+] [sodium hydrogen fumate]
inhibiting rate (%) (adding 5% of coffee extract) [1, 5]: 100% | Inhibiting rate (%) (non adding coffee extract) [1, 6]: 100%

O=C([O-])CC(O)C(=O)O.[Na+] (centres unmarked) [sodium hydrogen malate]
inhibiting rate (%) (adding 5% of coffee extract) [1, 5]: 100% | Inhibiting rate (%) (non adding coffee extract) [1, 6]: 100%

O=C([O-])C(O)C(O)C(=O)O.[Na+] (centres unmarked) [sodium hydrogen tartrate]
inhibiting rate (%) (adding 5% of coffee extract) [1, 5]: 100% | Inhibiting rate (%) (non adding coffee extract) [1, 6]: 100%

O=C([O-])/C=C/C(=O)O.[K+] [potassium hydrogen fumate]
inhibiting rate (%) (adding 5% of coffee extract) [1, 5]: 100% | Inhibiting rate (%) (non adding coffee extract) [1, 6]: 100%

O=C(O)CC(O)(CC(=O)O)C(=O)[O-].[Na+] [sodium dihydrogen citrate]
inhibiting rate (%) (adding 5% of coffee extract) [1, 5]: 100% | Inhibiting rate (%) (non adding coffee extract) [1, 6]: 100%

O=C(O)CCC(=O)O [Succinic acid]
IC50 [1, 7]: 5.8 µg/mL (≈ 49.1 µM) | inhibition at 2 µg/mL ([1]; dose 2 μg/ml, adding 5% of coffee extract, read-out: Inhibiting rate (%)): 24.9% | inhibition at 2 µg/mL ([1]; dose 2 μg/ml, non-adding coffee extract, read-out: Inhibiting rate (%)): 17.9% | inhibition at 5 µg/mL ([1]; dose 5 μg/ml, adding 5% of coffee extract, read-out: Inhibiting rate (%)): 43.6% | inhibition at 5 µg/mL ([1]; dose 5 μg/ml, non-adding coffee extract, read-out: Inhibiting rate (%)): 37.7% | inhibition at 10 µg/mL ([1]; dose 10 μg/ml, adding 5% of coffee extract, read-out: Inhibiting rate (%)): 87.9% | inhibition at 10 µg/mL ([1]; dose 10 μg/ml, non-adding coffee extract, read-out: Inhibiting rate (%)): 84% | inhibition at 50 µg/mL ([1]; dose 50 μg/ml, adding 5% of coffee extract, read-out: Inhibiting rate (%)): 100% | inhibition at 50 µg/mL ([1]; dose 50 μg/ml, non-adding coffee extract, read-out: Inhibiting rate (%)): 100% | inhibition at 100 µg/mL ([1]; dose 100 μg/ml, adding 5% of coffee extract, read-out: Inhibiting rate (%)): 100% | inhibition at 100 µg/mL ([1]; dose 100 μg/ml, non-adding coffee extract, read-out: Inhibiting rate (%)): 100% | inhibition at 300 µg/mL ([1]; dose 300 μg/ml, adding 5% of coffee extract, read-out: Inhibiting rate (%)): 100% | inhibition at 300 µg/mL ([1]; dose 300 μg/ml, non-adding coffee extract, read-out: Inhibiting rate (%)): 100% | inhibition at 1000 µg/mL ([1]; dose 1000 μg/ml, adding 5% of coffee extract, read-out: Inhibiting rate (%)): 100% | inhibition at 1000 µg/mL ([1]; dose 1000 μg/ml, non-adding coffee extract, read-out: Inhibiting rate (%)): 100% | IC50 ([1]; non-adding coffee extract, calculated by figure): 7 µg/mL (≈ 59.3 µM) | inhibition at 100 µg/mL [1, 3]: 100% | inhibition at 100 µg/mL [1, 4]: 100% | Histamine releasing rate (%) [1, 8]: 70.5% | Histamine releasing rate (%) ([1]; dose 2 μg/ml, non-adding coffee extract): 76.2% | Histamine releasing rate (%) [1, 9]: 55.3% | Histamine releasing rate (%) ([1]; dose 5 μg/ml, non-adding coffee extract): 60.1% | Histamine releasing rate (%) [1, 10]: 19.3% | Histamine releasing rate (%) ([1]; dose 10 μg/ml, non-adding coffee extract): 22.5% | Histamine releasing rate (%) [1, 11]: 9.1% | Histamine releasing rate (%) ([1]; dose 50 μg/ml, non-adding coffee extract): 9.1% | Histamine releasing rate (%) [1, 12]: 9.3% | Histamine releasing rate (%) ([1]; dose 100 μg/ml, non-adding coffee extract): 9.3% | Histamine releasing rate (%) [1, 13]: 9.4% | Histamine releasing rate (%) ([1]; dose 300 μg/ml, non-adding coffee extract): 9.4% | Histamine releasing rate (%) [1, 14]: 9.4% | Histamine releasing rate (%) ([1]; dose 1000 μg/ml, non-adding coffee extract): 9.4% | change in vivo at 1800 mg [2]: 330%

O=C1O[C@H](CO)[C@@H](O)[C@H](O)[C@H]1O [gluconolactone]
inhibition at 100 µg/mL [1, 3]: 100% | inhibition at 100 µg/mL [1, 4]: 100% | change in vivo at 1800 mg [2]: 290%

CCC(=O)O [propionic acid]
inhibition at 100 µg/mL [1, 3]: 100% | inhibition at 100 µg/mL [1, 4]: 100% | change in vivo at 1800 mg [2]: 296%

O=C(O)C=C(CC(=O)O)C(=O)O [aconitic acid]
inhibition at 100 µg/mL [1, 3]: 40% | inhibition at 100 µg/mL [1, 4]: 100% | change in vivo at 1800 mg [2]: 315%

O=C([O-])CC(O)(CC(=O)[O-])C(=O)O.[Na+].[Na+] [disodium hydrogen citrate]
inhibiting rate (%) (adding 5% of coffee extract) [1, 5]: 49.4% | Inhibiting rate (%) (non adding coffee extract) [1, 6]: 39.1%

CC1(C)[C@@H](O[C@H]2O[C@H](C(=O)[O-])[C@@H](O)[C@H](O)[C@H]2O[C@@H]2O[C@H](C(=O)[O-])[C@@H](O)[C@H](O)[C@H]2O)CC[C@]2(C)[C@H]3C(=O)C=C4[C@@H]5C[C@@](C)(C(=O)[O-])CC[C@]5(C)CC[C@@]4(C)[C@]3(C)CC[C@@H]12.[Na+].[Na+].[Na+] [Trisodium glycyrrhizinate, reference compound]
IC50 value (concentration for inhibiting rate of 50%) [1, 7]: 200 µg/mL | Histamine releasing rate (%) [1, 8]: 90.1% | Inhibiting rate (%) [1, 8]: 0.8% | Histamine releasing rate (%) [1, 9]: 89.5% | Inhibiting rate (%) [1, 9]: 1.6% | Histamine releasing rate (%) [1, 10]: 88.1% | Inhibiting rate (%) [1, 10]: 3.3% | Inhibiting rate (%) [1, 11]: 17.8% | Histamine releasing rate (%) [1, 12]: 65.5% | Inhibiting rate (%) [1, 12]: 31.1% | Histamine releasing rate (%) [1, 13]: 32.7% | Inhibiting rate (%) [1, 13]: 70.5% | Histamine releasing rate (%) [1, 14]: 9.2% | Inhibiting rate (%) [1, 14]: 100% | inhibiting rate (%) (adding 5% of coffee extract) [1, 5]: 48.3% | Inhibiting rate (%) (non adding coffee extract) [1, 6]: 30.9%

O=C(O)/C=C\C(=O)O [Maleic acid]
change in vivo at 1800 mg [2]: 370%

O=C(O)CC(O)C(=O)O.[K] (centres unmarked) [potassium hydrogen malate]
inhibiting rate (%) (adding 5% of coffee extract) [1, 5]: 100% | Inhibiting rate (%) (non adding coffee extract) [1, 6]: 100%
